Measurements from patent publication US12414919B2, “Method for preparing biocompatible polymer-based apixaban-loaded microspheres” (HLB PHARMACEUTICAL CO., LTD., priority 2019, dated 2025).

Tests used:
[1] = Dissolution of Apixaban in halogen organic solvent (dichloromethane); assay type: physicochemical; conditions: 25 mg Apixaban in 1 mL dichloromethane, after 12 hours
Description: 25 mg of Apixaban was dissolved in 1 mL, of dichloromethane, and the mixture was photographed after 12 hours.

[2] = oral administration; cited from earlier work
[3] = Dissolution of Apixaban in non-halogen organic solvents; assay type: physicochemical; conditions: 25 mg Apixaban in 1 mL of each of ethyl acetate, ethyl formate, methyl propionate, ethanol; stirred
Description: 25 mg of Apixaban was added to 1 mL of each of ethyl acetate, ethyl formate, methyl propionate, and ethanol and stirred. As a result, it was confirmed that Apixaban was not dissolved in the four organic solvents (FIG. 1).

Dissolution / recrystallization of Apixaban in dichloromethane [1]: Apixaban crystals were formed
Dissolution of Apixaban in non-halogen organic solvents [3]: not dissolved
Structure (SMILES): COc1ccc(-n2nc(C(N)=O)c3c2C(=O)N(c2ccc(N4CCCCC4=O)cc2)CC3)cc1 [Apixaban]
bioavailability [2]: about 50%
